Source: ChEMBL document CHEMBL3525930 (Drug Metab Dispos, 2012)

How the values were obtained:
Hepatocyte [1] = assay: Cytotoxicity against human hepatocytes assessed as cell viability relative to control; type: cell-based
CYP2C9 [2] = assay: Induction of CYP2C9 mRNA expression in human hepatocytes at 10 uM after 72 hrs by RT-PCR analysis relative to vehicle-treated control; type: ADME, cell-based, Hepatocyte; details: read-out: FC
MDR1 = assay: Induction of MDR1 mRNA expression in human hepatocytes at 10 uM after 72 hrs by RT-PCR analysis relative to vehicle-treated control; type: ADME, cell-based, Hepatocyte; details: read-out: FC
CYP3A5 = assay: Induction of CYP3A5 mRNA expression in human hepatocytes at 10 uM after 72 hrs by RT-PCR analysis relative to vehicle-treated control
CYP2D6 = assay: Induction of CYP2D6 mRNA expression in human hepatocytes at 10 uM after 72 hrs by RT-PCR analysis relative to vehicle-treated control; type: ADME, cell-based, Hepatocyte; details: read-out: FC
CYP1A2 = assay: Induction of CYP1A2 mRNA expression in human hepatocytes at 10 uM after 72 hrs by RT-PCR analysis relative to vehicle-treated control; type: ADME, cell-based, Hepatocyte; details: read-out: FC
CYP2B6 [3] = assay: (§1) Induction of CYP2B6 mRNA expression in human hepatocytes at 10 uM after 72 hrs by RT-PCR analysis relative to vehicle-treated control; type: ADME, cell-based, Hepatocyte; details: read-out: FC
Hepatocyte [4] = assay: as §1; type: ADME, cell-based; details: 72 h, 10 µM
Cytochrome P450 2B6 [5] = biological target: T1, Cytochrome P450 2B6 (Homo sapiens, UniProt P20813); assay: Inhibition of CYP2B6 in human liver microsomes incubated for 3 mins prior to NADPH addition measured after 10 mins by LC-MS analysis; type: ADME
T1 sequence (P20813 whole entry): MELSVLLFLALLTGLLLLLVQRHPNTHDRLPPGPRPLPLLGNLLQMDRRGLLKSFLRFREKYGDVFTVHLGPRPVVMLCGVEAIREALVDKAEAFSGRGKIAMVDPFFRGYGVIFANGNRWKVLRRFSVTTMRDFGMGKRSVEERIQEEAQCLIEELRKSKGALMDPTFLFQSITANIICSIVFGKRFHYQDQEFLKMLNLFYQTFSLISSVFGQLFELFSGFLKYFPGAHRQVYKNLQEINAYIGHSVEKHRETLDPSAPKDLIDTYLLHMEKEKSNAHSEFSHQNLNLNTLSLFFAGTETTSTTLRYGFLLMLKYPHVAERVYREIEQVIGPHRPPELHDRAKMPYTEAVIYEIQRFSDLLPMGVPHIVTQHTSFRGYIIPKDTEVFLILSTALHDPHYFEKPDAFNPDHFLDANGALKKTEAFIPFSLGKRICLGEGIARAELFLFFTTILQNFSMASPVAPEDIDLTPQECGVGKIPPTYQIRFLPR

MRP2 = assay: Induction of MRP2 mRNA expression in human hepatocytes at 10 uM after 72 hrs by RT-PCR analysis relative to vehicle-treated control; type: cell-based, Hepatocyte; details: read-out: FC
CYP2C19 = assay: Induction of CYP2C19 mRNA expression in human hepatocytes at 10 uM after 72 hrs by RT-PCR analysis relative to vehicle-treated control; type: ADME, cell-based, Hepatocyte; details: read-out: FC
CYP2C8 = assay: Induction of CYP2C8 mRNA expression in human hepatocytes at 10 uM after 72 hrs by RT-PCR analysis relative to vehicle-treated control; type: ADME, cell-based, Hepatocyte; details: read-out: FC
Cytochrome P450 3A4 [6] = biological target: T2, Cytochrome P450 3A4 (Homo sapiens, UniProt P08684); assay: Inhibition of recombinant CYP3A4 (unknown origin) incubated for 3 mins prior to NADPH addition measured after 3 mins by LC-MS analysis; type: ADME
Cytochrome P450 2B6 [7] = biological target: T1, Cytochrome P450 2B6; assay: Inhibition of recombinant CYP2B6 (unknown origin) incubated for 3 mins prior to NADPH addition measured after 10 mins by LC-MS analysis; type: ADME
Cytochrome P450 3A4 [8] = biological target: T2, Cytochrome P450 3A4; assay: Inhibition of CYP3A4 in human liver microsomes incubated for 3 mins prior to NADPH addition measured after 3 mins by LC-MS analysis; type: ADME
UGT2B7 = assay: Induction of UGT2B7 mRNA expression in human hepatocytes at 10 uM after 72 hrs by RT-PCR analysis relative to vehicle-treated control; type: ADME, cell-based, Hepatocyte; details: read-out: FC
Cytochrome P450 2B6 [9] = biological target: T1, Cytochrome P450 2B6; assay: (§2) Induction of CYP2B6 in human hepatocytes at 10 uM after 72 hrs relative to vehicle-treated control; type: ADME, cell-based, Hepatocyte; details: 72 h, 10 µM
CYP2B6 [10] = biological target: CYP2B6 (Homo sapiens, UniProt P20813); assay: as §2; type: ADME, cell-based, Hepatocyte; details: read-out: FC
CYP3A4 [11] = biological target: CYP3A4 (Homo sapiens, UniProt P08684); assay: (§3) Induction of CYP3A4 in human hepatocytes at 10 uM after 72 hrs relative to vehicle-treated control
Cytochrome P450 3A4 [12] = biological target: T2, Cytochrome P450 3A4; assay: as §3; details: 72 h, 10 µM
CYP2C9 [13] = biological target: CYP2C9 (Homo sapiens, UniProt P11712); assay: Induction of CYP2C9 in human hepatocytes at 10 uM after 72 hrs relative to vehicle-treated control; type: ADME, cell-based, Hepatocyte; details: read-out: FC
MRP1 = assay: Induction of MRP1 mRNA expression in human hepatocytes at 10 uM after 72 hrs by RT-PCR analysis relative to vehicle-treated control; type: cell-based, Hepatocyte; details: read-out: FC
UGT1A9 = assay: Induction of UGT1A9 mRNA expression in human hepatocytes at 10 uM after 72 hrs by RT-PCR analysis relative to vehicle-treated control; type: ADME, cell-based, Hepatocyte; details: read-out: FC
CYP2A6 = assay: Induction of CYP2A6 mRNA expression in human hepatocytes at 10 uM after 72 hrs by RT-PCR analysis relative to vehicle-treated control; type: ADME, cell-based, Hepatocyte; details: read-out: FC
[14] = Chemical stability of the compound in human hepatocyte culture medium assessed as compound remaining at 1 to 50 uM after 24 hrs; type: physicochemical; details: read-out: Stability
CYP2E1 = assay: Induction of CYP2E1 mRNA expression in human hepatocytes at 10 uM after 72 hrs by RT-PCR analysis relative to vehicle-treated control; type: ADME, cell-based, Hepatocyte; details: read-out: FC
Hepatocyte [15] = assay: (§4) Induction of CYP3A4 mRNA expression in human hepatocytes at 10 uM after 72 hrs by RT-PCR analysis relative to vehicle-treated control; details: 72 h, 10 µM
CYP3A4 [16] = assay: as §4
Homo sapiens = species on record: Homo sapiens; assay: Unbound Cmax in human; type: ADME, organism-based; details: in vivo
[17] = Chemical stability of the compound in PBS buffer assessed as compound remaining at pH 7.4 after 10 mins; type: physicochemical; details: read-out: Stability
[18] = Total Cmax in human; type: ADME, organism-based; details: in vivo
[19] = biological target: Nuclear receptor subfamily 1 group I member 2 (Homo sapiens, UniProt O75469); assay: Activation of human PXR expressed in human LS174T cells; type: ADME, cell-based
Chain of Nuclear receptor subfamily 1 group I member 2 (O75469 whole entry): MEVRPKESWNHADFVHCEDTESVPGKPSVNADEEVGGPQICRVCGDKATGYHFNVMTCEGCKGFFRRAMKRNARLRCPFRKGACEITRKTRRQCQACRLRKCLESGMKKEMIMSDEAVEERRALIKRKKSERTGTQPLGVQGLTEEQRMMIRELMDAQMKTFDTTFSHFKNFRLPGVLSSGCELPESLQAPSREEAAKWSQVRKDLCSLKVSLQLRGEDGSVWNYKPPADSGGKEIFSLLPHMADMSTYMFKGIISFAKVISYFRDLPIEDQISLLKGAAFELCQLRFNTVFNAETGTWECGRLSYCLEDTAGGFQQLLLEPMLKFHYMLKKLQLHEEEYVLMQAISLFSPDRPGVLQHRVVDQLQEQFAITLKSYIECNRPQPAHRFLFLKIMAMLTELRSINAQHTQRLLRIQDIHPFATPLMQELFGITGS

T2 sequence (P08684 whole entry): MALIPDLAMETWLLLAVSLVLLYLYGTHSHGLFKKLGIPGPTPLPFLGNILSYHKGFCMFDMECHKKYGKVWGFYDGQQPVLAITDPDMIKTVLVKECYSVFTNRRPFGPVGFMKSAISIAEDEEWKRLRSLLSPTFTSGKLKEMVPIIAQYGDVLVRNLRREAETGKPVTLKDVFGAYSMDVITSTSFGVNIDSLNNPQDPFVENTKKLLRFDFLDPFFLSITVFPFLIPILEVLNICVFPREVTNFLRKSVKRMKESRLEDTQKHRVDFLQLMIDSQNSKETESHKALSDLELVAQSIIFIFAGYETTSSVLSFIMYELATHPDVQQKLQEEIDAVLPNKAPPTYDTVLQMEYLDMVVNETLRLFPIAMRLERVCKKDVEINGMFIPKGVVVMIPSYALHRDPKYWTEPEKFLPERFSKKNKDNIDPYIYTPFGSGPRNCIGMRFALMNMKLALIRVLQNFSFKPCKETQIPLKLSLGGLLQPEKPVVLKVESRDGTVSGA
Chain of CYP3A4 (Homo sapiens, UniProt P08684) (P08684 whole entry): as above
Chain of CYP2C9 (Homo sapiens, UniProt P11712) (P11712 whole entry): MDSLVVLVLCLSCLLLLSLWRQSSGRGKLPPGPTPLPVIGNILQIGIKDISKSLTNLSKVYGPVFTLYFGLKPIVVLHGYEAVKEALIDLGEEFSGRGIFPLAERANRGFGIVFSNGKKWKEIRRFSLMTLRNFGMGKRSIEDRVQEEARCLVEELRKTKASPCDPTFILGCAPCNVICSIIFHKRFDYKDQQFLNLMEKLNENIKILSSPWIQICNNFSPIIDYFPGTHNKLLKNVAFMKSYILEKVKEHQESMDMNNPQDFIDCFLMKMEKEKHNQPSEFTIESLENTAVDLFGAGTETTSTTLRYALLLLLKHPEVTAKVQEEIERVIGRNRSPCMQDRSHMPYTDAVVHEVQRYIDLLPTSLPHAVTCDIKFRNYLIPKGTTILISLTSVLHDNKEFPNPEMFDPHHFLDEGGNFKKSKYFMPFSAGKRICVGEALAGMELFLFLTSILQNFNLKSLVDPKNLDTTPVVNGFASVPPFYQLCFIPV

## CO[C@H]1/C=C/O[C@@]2(C)Oc3c(C)c(O)c4c(O)c(c(/C=N/N5CCN(C)CC5)c(O)c4c3C2=O)NC(=O)/C(C)=C\C=C\[C@H](C)[C@H](O)[C@@H](C)[C@@H](O)[C@@H](C)[C@H](OC(C)=O)[C@@H]1C [RIFAMPIN]
Hepatocyte [1]
  Activity: < 50 µM

## C[C@H]1[C@@H](O)O[C@@H]2O[C@@]3(C)CC[C@H]4[C@H](C)CC[C@@H]1[C@@]24OO3 [ARTENIMOL]
CYP2C9 [2]
  fold induction at 72 h, 10 µM: 1
MDR1
  fold induction at 72 h, 10 µM: 1
CYP3A5
  fold induction at 72 h, 10 µM: 1
CYP2D6
  fold induction at 72 h, 10 µM: 0.7
CYP1A2
  fold induction at 72 h, 10 µM: 1.1
CYP2B6 [3]
  fold induction at 72 h, 10 µM: 3.5
Hepatocyte [4]
  Activity: 13.9%
Cytochrome P450 2B6 [5]
  IC50: > 125 µM
MRP2
  fold induction at 72 h, 10 µM: 0.8
CYP2C19
  fold induction at 72 h, 10 µM: 1.3
CYP2C8
  fold induction at 72 h, 10 µM: 0.8
Cytochrome P450 3A4 [6]
  IC50: > 125 µM
Cytochrome P450 2B6 [7]
  IC50: > 125 µM
Cytochrome P450 3A4 [8]
  IC50: > 125 µM
UGT2B7
  fold induction at 72 h, 10 µM: 0.7
Cytochrome P450 2B6 [9]
  Activity: 11.3%
CYP2B6 [10]
  fold induction at 72 h, 10 µM: 2.9
Hepatocyte [1]
  Activity: 50 µM
CYP3A4 [11]
  fold induction at 72 h, 10 µM: 2.1
Cytochrome P450 3A4 [12]
  Activity: 5.2%
CYP2C9 [13]
  fold induction at 72 h, 10 µM: 1.2
MRP1
  fold induction at 72 h, 10 µM: 0.8
UGT1A9
  fold induction at 72 h, 10 µM: 1.4
CYP2A6
  fold induction at 72 h, 10 µM: 2.2
[14]
  remaining at 24 h, up to 50 µM: 8%
CYP2E1
  fold induction at 72 h, 10 µM: 0.6
Hepatocyte [15]
  Activity: 7.7%
CYP3A4 [16]
  fold induction at 72 h, 10 µM: 3.4

## C[C@@H]1CC[C@H]2[C@@H](C)C(=O)O[C@@H]3O[C@@]4(C)CC[C@@H]1[C@]32OO4 [ARTEMISININ]
Homo sapiens
  fCmax: 0.58 µM
[17]
  remaining at 10 min: < 15%
[18]
  Cmax: 1600 nM
[19]
  EC50: 30 µM
Hepatocyte [1]
  Activity: < 50 µM
[14]
  remaining at 24 h, up to 50 µM: 38%
